Laboratory results published in patent publication US20240156733A1, “METHODS OF PREPARATION OF NOVEL PAN TLR ANTAGONISTIC LIPOSOMAL-LNP FORMULATIONS AND USES THEREOF” (Celestial Therapeutics Inc., priority 2022, published 2024).
“Also recorded” adds a separate entry of the source.

What was measured:
[1] = tested on: RAW264.7 murine macrophage cells; test: TNFα production with TLR agonists in RAW264.7 macrophages, POPG treatment; format: cell-based; settings: TLR agonist stimulated RAW264.7 cells, after 24 h of POPG treatment, FIG. 1
Excerpt: (§1) The Journal of Biological Chemistry 294, 4282 […]; Numata, M. & Voelker, D. R. Anti-inflammatory and anti-viral actions of anionic pulmonary surfactant phospholipids. Biochimica et Biophysica Acta (BBA)—Molecular and CEll Biology of Lipids 1867, 159139 (2022) Mueller, M., Brandenburg, K., Dedrick, R., Schromm, A. B. & Seydel, U. Phospholipids Inhibit Lipopolysaccharide (LPS)-Induced Cell Activation: A Role for LPS-Binding Protein. The Journal of Immunology 174, 1091-1096 (2005); K, K. et al. Anionic pulmonary surfactact phospholipids inhibit inflammatory response from alveolar macrophages and U937 cells by binding the lipopolysaccharide-interacting proteins CD14 and MD-2. J Biol Chem 284, 25488-25500 (2009)]. MD-2 and CD14 are molecular components that are responsible for facilitating the downstream intracellular signaling of TLR4 mediated inflammation. POPG binding to MD-2 and CD-14 will disrupt the downstream TLR signaling and prevent the inflammatory response [Berger, M. de Boer, J. D, van der Poll, T., Sterk, P. J. & van der Zee, J. S. Local coagulation activation following bronchial instillation of house dust mite allergen (HDM) and HDM/Lipopolysaccharide (LPS) in mild asthmatics. European Respiratory Journal 40. (2012)].

[2] = molecular target: T1, CD14 (Homo sapiens, UniProt P08571); settings: prevents association with TLR-4; cited from earlier work
T1 sequence (P08571 20-345): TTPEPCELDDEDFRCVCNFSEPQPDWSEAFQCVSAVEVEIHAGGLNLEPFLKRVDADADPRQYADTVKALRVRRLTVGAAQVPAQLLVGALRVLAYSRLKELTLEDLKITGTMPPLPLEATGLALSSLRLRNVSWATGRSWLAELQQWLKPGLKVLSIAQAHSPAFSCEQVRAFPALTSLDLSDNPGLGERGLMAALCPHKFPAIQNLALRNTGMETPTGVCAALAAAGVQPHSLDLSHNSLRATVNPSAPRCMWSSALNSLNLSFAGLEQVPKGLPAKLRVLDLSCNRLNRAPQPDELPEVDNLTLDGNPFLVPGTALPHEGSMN

[3] = molecular target: T2, MD-2 (Homo sapiens, UniProt Q9Y6Y9); settings: prevents association with TLR-4; cited from earlier work
T2 sequence (Q9Y6Y9 19-160): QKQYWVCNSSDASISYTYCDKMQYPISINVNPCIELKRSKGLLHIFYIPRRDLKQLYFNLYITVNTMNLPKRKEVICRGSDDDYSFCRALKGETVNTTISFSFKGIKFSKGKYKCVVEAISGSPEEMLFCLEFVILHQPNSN

[4] = tested on: IL8; test: Suppression of inflammation mediated by IL8 (data not shown)
Excerpt: as §1

In the case of `CCCCCCCC/C=C\CCCCCCCC(=O)O[C@H](COC(=O)CCCCCCCCCCCCCCC)COP(=O)(O)OCC(O)CO` (stereo partly shown) [POPG, palmitoyloleoylphosphatidylglycerol], the TNFα production [1] is given as “reduces TNFα production; also recorded: suppression of inflammation mediated by TNFα”, the “binding to CD14” value [2] is given as “preferentially bind” and the “binding to MD-2” value [3] is given as “preferentially bind”. For the same compound, the “suppression of inflammation mediated by IL8” value [4] was “suppression of inflammation”.
